The results in this text go back to ChEMBL document CHEMBL1201862, “PubChem BioAssay data set” (2004).

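Dose response: 5 concentrations. Exposure: 48 h. Format: 96-well plates. Endpoint: linear interpolation; highest concentration if not reached. Here, GI50 denotes the concentration required for 50% inhibition of growth.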 Active and inactive are the calls of the source. No stated cut-off is given here; in the data, active = GI50 up to about 1.1 µM and inactive = higher.

Some test systems named below: SR; HOP-92; HCT-15; RXF 393; PC-3; SN12C; A498; SK-MEL-28; SK-OV-3; Hs-578T; SF-268; M14; COLO 205; KM12; LOX IMVI; HT-29; CCRF-CEM; NCI-H226; SNB-19; K562.
What all share (assay): inhibition of tumour cell growth, NCI panel, 48 h

Take `COc1ccc(/C=N/NS(=O)(=O)c2ccc(/C=C3\NC(=O)N(C)C3=O)cc2)cc1`: the GI50 in the experiment with SR was > 100 µM (inactive); in the experiment on HOP-92 it was 58.7 µM (inactive); with HCT-15 it was greater than 100 µM; in the experiment on RXF 393 it was 38.6 µM (inactive); with PC-3, 80.2 µM (inactive); with SN12C, > 100 µM (inactive). Also, the GI50 in the experiment with A498 is 70.6 µM (inactive); in the experiment with SK-MEL-28, > 100 µM (inactive); in the experiment with SK-OV-3, > 100 µM (inactive); with Hs-578T, 30.3 µM (inactive); in the experiment with SF-268, 37.8 µM (inactive); in the experiment on M14 it was > 100 µM (inactive). In addition, the GI50 in the experiment with COLO 205 is > 100 µM (inactive); with KM12 it was > 100 µM (inactive); in the experiment with LOX IMVI, > 100 µM (inactive); in the experiment with HT-29 it was > 100 µM (inactive); in the experiment with CCRF-CEM, 78.3 µM (inactive); in the experiment on NCI-H226, > 100 µM (inactive). For the same compound, the GI50 with SNB-19 was 80.9 µM (inactive); in the experiment on K562, > 100 µM (inactive).
On to `N=C(N)NCCCC(NCc1c2ccccc2nc2ccccc12)C(=O)O` (stereo not given), for which the GI50 was 14.3 µM (inactive) in the experiment on SR; 7.93 µM (inactive) with HOP-92; 29.4 µM in the experiment on HCT-15; 57 µM (inactive) in the experiment with RXF 393; 35.2 µM (inactive) in the experiment with PC-3; 39.2 µM (inactive) with SN12C. Moreover, the GI50 is > 100 µM (inactive) with A498; > 66.7 µM (inactive) in the experiment on SK-MEL-28; 53.1 µM (inactive) in the experiment on SK-OV-3; 69.7 µM (inactive) in the experiment with Hs-578T; 47.6 µM (inactive) with SF-268; 48.1 µM (inactive) in the experiment on M14. Moreover, the GI50 is 37.9 µM (inactive) in the experiment on COLO 205; 21.6 µM (inactive) with KM12; 26.2 µM (inactive) with LOX IMVI; 18.9 µM (inactive) in the experiment on HT-29; 9.55 µM (inactive) with CCRF-CEM; > 81.8 µM (inactive) in the experiment with NCI-H226. In addition, the GI50 with SNB-19 is 48.4 µM (inactive); with K562, 10.1 µM (inactive).
Consider `COC(=O)CC1(O)C(C=C(C)C)C(C(=O)OC)C(=O)C(C(=O)OC)C1C(=O)OC` (stereo not given), for which the GI50 was > 100 µM (inactive) in the experiment with SR; > 100 µM (inactive) with HOP-92; greater than 100 µM in the experiment on HCT-15; > 100 µM (inactive) in the experiment on RXF 393; > 100 µM (inactive) with PC-3; > 100 µM (inactive) in the experiment on SN12C. The GI50 with A498, in the experiment with SK-MEL-28, with SK-OV-3, with Hs-578T, with SF-268 and in the experiment with M14 was > 100 µM (inactive) in each case. Moreover, the GI50 in the experiment on COLO 205, with KM12, in the experiment on LOX IMVI, in the experiment on HT-29, in the experiment on CCRF-CEM and in the experiment on NCI-H226 was > 100 µM (inactive) throughout. Besides, the GI50 with SNB-19 and in the experiment with K562 was > 100 µM (inactive) throughout.
For the compound `OC(COc1cccc2ccccc12)CN1CCOCC1` (stereo not given), the GI50 in the experiment with SR is > 100 µM (inactive); in the experiment on HOP-92, 22.2 µM (inactive); with HCT-15, greater than 100 µM; in the experiment on RXF 393, > 100 µM (inactive); in the experiment with PC-3, > 100 µM (inactive); in the experiment on SN12C, > 100 µM (inactive). For the same compound, the GI50 in the experiment with A498 is > 100 µM (inactive); in the experiment on SK-MEL-28 it was > 100 µM (inactive); in the experiment with SK-OV-3, > 100 µM (inactive); with Hs-578T, 75.5 µM (inactive); in the experiment with SF-268, > 100 µM (inactive); in the experiment with M14, > 100 µM (inactive). The GI50 in the experiment with COLO 205, in the experiment on KM12, with LOX IMVI, in the experiment on HT-29, in the experiment with CCRF-CEM and in the experiment on NCI-H226 was > 100 µM (inactive) each time. Further, the GI50 with SNB-19 and in the experiment with K562 was > 100 µM (inactive) in each case.
Take `N#Cc1c(NCCc2ccc(F)cc2)c2ccccc2n2c1nc1ccccc12`: the GI50 was > 100 µM (inactive) in the experiment with SR; 3.55 µM (inactive) in the experiment with HOP-92; 28.4 µM in the experiment with HCT-15; 10.7 µM (inactive) with RXF 393; 13 µM (inactive) with PC-3; 15.1 µM (inactive) with SN12C. Besides, the GI50 in the experiment with A498 was 21 µM (inactive); in the experiment on SK-MEL-28 it was 40.6 µM (inactive); with SK-OV-3, 20.1 µM (inactive); with Hs-578T, 4.33 µM (inactive); in the experiment on SF-268, 7.41 µM (inactive); in the experiment on M14 it was 42 µM (inactive). In addition, the GI50 was 71.6 µM (inactive) with COLO 205; 23.2 µM (inactive) in the experiment on KM12; 14.1 µM (inactive) with LOX IMVI; 14.9 µM (inactive) in the experiment on HT-29; > 100 µM (inactive) in the experiment on CCRF-CEM; 16.7 µM (inactive) in the experiment with NCI-H226. For the same compound, the GI50 in the experiment on SNB-19 is 14 µM (inactive); in the experiment on K562, > 100 µM (inactive).
Regarding `CC12CCC3c4ccc(O)cc4CCC3C1C/C(=N\O)C2O` (stereo not given), the GI50 is > 100 µM (inactive) in the experiment on SR; > 100 µM (inactive) with HOP-92; greater than 100 µM in the experiment with HCT-15; > 100 µM (inactive) with RXF 393; > 100 µM (inactive) in the experiment with PC-3; > 100 µM (inactive) with SN12C. For the same compound, the GI50 in the experiment with A498 is > 100 µM (inactive); in the experiment on SK-MEL-28, > 100 µM (inactive); with SK-OV-3, > 100 µM (inactive); in the experiment on Hs-578T it was 99.1 µM (inactive); in the experiment on SF-268 it was > 100 µM (inactive); in the experiment on M14, > 100 µM (inactive). For the same compound, the GI50 with COLO 205 was > 100 µM (inactive); in the experiment on KM12 it was 99.5 µM (inactive); in the experiment on LOX IMVI, > 100 µM (inactive); with HT-29, 77.6 µM (inactive); with CCRF-CEM, 42.7 µM (inactive); in the experiment on NCI-H226, > 100 µM (inactive). In addition, the GI50 with SNB-19 and in the experiment on K562 was > 100 µM (inactive) in each case.
Turning to `CC(C)(C)OC(=O)NC(Cc1ccccc1)C(=O)OCN1C(=O)C2C3C=CC(C2C1=O)C1C2C(=O)N(COC(=O)C(Cc4ccccc4)NC(=O)OC(C)(C)C)C(=O)C2C31` (stereo not given), the GI50 was 0.176 µM (active) with SR; 86.5 µM (inactive) in the experiment on HOP-92; 43.2 µM in the experiment with HCT-15; 22.7 µM (inactive) with RXF 393; 29.5 µM (inactive) in the experiment on PC-3; 25.5 µM (inactive) in the experiment with SN12C. The GI50 with A498 is 25.9 µM (inactive); in the experiment with SK-MEL-28 it was 34.6 µM (inactive); in the experiment on SK-OV-3 it was 37.2 µM (inactive); in the experiment with Hs-578T, 18.7 µM (inactive); with SF-268 it was 38.5 µM (inactive); in the experiment on M14 it was 38.9 µM (inactive). Also, the GI50 in the experiment with COLO 205 is 8.22 µM (inactive); in the experiment with KM12, > 100 µM (inactive); in the experiment on LOX IMVI, 36.9 µM (inactive); with HT-29, 12.9 µM (inactive); with CCRF-CEM, 2.67 µM (inactive); in the experiment with NCI-H226, 29.4 µM (inactive). Besides, the values for the GI50 in the experiment on SNB-19 and in the experiment with K562 were 34.3 µM (inactive) and 23.1 µM (inactive), respectively.
Turning to `O=C(O)c1cc2c(s1)C(=O)c1sccc1C2=O`, the GI50 with SR is 2.81 µM (inactive); in the experiment on HOP-92, 16.3 µM (inactive); in the experiment on HCT-15, 3.93 µM; in the experiment with RXF 393 it was 6.87 µM (inactive); in the experiment on PC-3, 9.82 µM (inactive); in the experiment on SN12C it was 2.73 µM (inactive). Further, the GI50 is 17.5 µM (inactive) with A498; 1.9 µM (inactive) in the experiment with SK-MEL-28; 20.6 µM (inactive) in the experiment on SK-OV-3; 2.49 µM (inactive) with Hs-578T; 5.24 µM (inactive) with SF-268; 1.43 µM (inactive) in the experiment with M14. Also, the GI50 in the experiment on COLO 205 is 17.2 µM (inactive); with KM12 it was 8.07 µM (inactive); in the experiment with LOX IMVI it was 1.32 µM (inactive); in the experiment with HT-29 it was 5.64 µM (inactive); in the experiment with CCRF-CEM it was 6.84 µM (inactive); in the experiment with NCI-H226, 19.6 µM (inactive). Moreover, the GI50 was 5.48 µM (inactive) with SNB-19 and 4.03 µM (inactive) in the experiment on K562.
